Source: paper PMC7893776, “Selecting an anti-malarial clinical candidate from two potent dihydroisoquinolones” (Malaria Journal, 2021)
“And” between values parts separate entries of the source, which are not always exact repeats. Identical values can stand only once. Like-named read-outs stand apart in the source and are kept apart here. Each block holds one compound with its values, some of them ahead of it.

What was measured:
[1] = Microsomal stability, rat; assay type: in vitro ADME; conditions: for CLint in vivo: scaled up using PBSF
Description: (§1) The metabolic stability assay was performed by incubating compounds individually (0.8, 4, or 20 µM) with mouse, rat, dog and human liver microsomes (Fisher, 0.5 mg/mL protein concentration) at 37 °C. The metabolic reaction was initiated by the addition of a NADPH-regenerating system and quenched at various time points by the addition of acetonitrile according to a published method.
(§2) The remaining concentration of each compound was measured as a ratio of peak area to the internal standard. The log peak area ratio was plotted vs. time (h), and the slope was determined to calculate the elimination rate constant [k = (− 2.303) * slope]. If deviation from first order kinetics was evident, only the initial linear portion of the plot was used to determine the rate constate, k. The half-life (h) was calculated as t1/2 = 0.693/k. Intrinsic clearance in vitro was calculated as CLintin vitro = (1000)*(0.693/t1/2*60)/0.5, where microsomal concentration in the reaction solution was 0.5 mg/mL; 1000 and 60 are scaling factors for volume (µL) and time (min), respectively. The intrinsic in vitro clearance was scaled to the intrinsic in vivo clearance using physiology based scaling factor (PBSF): CLint in vivo= CLint in vitro *PBSF: (microsome protein/gram liver) * (gram liver/kg b.w.), with PBSF: 47 (mouse), 47(rat), 58 (dog), 32 (human); and liver weight proportions: 54.9 (mouse), 36.6 (rat), 32.9 (dog) 25.7 (human).

CYP2C19 = target: T1, CYP2C19 (Homo sapiens, UniProt P33261); test: CYP450 inhibition, CYP2C19; assay type: in vitro ADME; conditions: for inhibition of CYP2C19: 10 µM, probe substrate S-mephenytoin, replicate measurements
T1 construct: purchased Cypex Ltd (Bactosomes)

[2] = Microsomal stability, human; assay type: in vitro ADME; conditions: for CLint in vivo: scaled up using PBSF
Description: as §1, §2

CYP2D6 = target: T2, CYP2D6 (Homo sapiens, UniProt P10635); test: CYP450 inhibition, CYP2D6; assay type: in vitro ADME; conditions: for inhibition of CYP2D6: 10 µM, probe substrate Bufuralol, replicate measurements
T2 construct: purchased Cypex Ltd (Bactosomes)

[3] = Rat pharmacokinetics, single PO or IV dose; assay type: in vivo, male Sprague Dawley rats
Description: Studies were undertaken to determine the plasma pharmacokinetics of SJ733 and SJ311. These studies included: (i) single oral gavage (PO) or intravenous (IV) dose administration to female C57BL/6 mice; (ii) single PO or IV dose administration to male Sprague Dawley (SD) rats; (iii) single PO or IV dose administration to male beagle dogs; (iv) toxicokinetic (TK) study following single PO administration to male SD rats. The PO and IV formulation used for mouse studies at SJCRH was 1% hydroxypropyl-beta-cyclodextrin (w/v), 10% ethanol (v/v), 10% propylene glycol (v/v), 40% PEG-400 (v/v) and 39% PBS (pH 7.4) isotonic (v/v). Compounds were dosed orally as suspensions, and intravenously as filtered solutions. Compound concentrations were confirmed post filtration using UV spectroscopy. The IV formulation used for rat studies (Monash University) was the same as that used for mice. For PO dosing to rats (Monash University) at 2 mg/kg, a suspension formulation was used containing 0.5% (w/v) hydroxypropyl methylcellulose, 0.5% (v/v) benzyl alcohol and 0.4% (v/v) Tween 80. The formulation used for rat studies at SRI (PO, high dose) was the same as that used in mouse PK studies. The formulation for the high dose TK study at SRI was 0.5% methylcellulose in sterile water. The formulation used for dog studies was the same as that used in mouse PK studies. The PO and IV PK of SJ733 and SJ311 were studied in overnight-fasted male Sprague Dawley rats. Rats had access to water ad libitum throughout the pre- and post-dose sampling period, and access to food was re-instated 4 h post-dose. […] Once collected, blood samples were centrifuged, supernatant plasma was removed and stored frozen (− 20 °C) until LC–MS analysis within 1 week of collection. The high dose levels of both compounds (50, 100, 200 mg/kg, PO, (+)-SJ733/311) were also independently tested by SRI, with a single oral gavage administration. Blood (through jugular vein) and urine were collected at time points up to 72 and 24 h post dose, respectively. Supernatant plasma was removed following centrifugation and stored frozen (− 70 °C) until LC–MS analysis. For toxicology studies, male Sprague Dawley rats were administered 50, 100, 250, 500, or 750 mg/kg of (r)-SJ733 or (r)-SJ311 by oral gavage (one dose per animal). Body weights were recorded on Day 1 prior to dose administration and on Day 4. Blood samples (400 µL) were collected at 4 and 24 h post drug administration from the retro-orbital sinus. Potassium EDTA treated plasma was collected and kept frozen at -70 °C for bioanalytical analysis. For studies at Monash University, rat plasma and urine samples were extracted utilizing protein precipitation with a twofold volume ratio of acetonitrile. SJ733, SJ311, and diazepam (IS) were detected using LC–MS/MS instrumentation. Aliquots (3 µL) were injected onto a Waters Acquity UPLC equipped with a Waters Micromass Xevo TQ MS/MS and separated using a Supelco Ascentis Express RP Amide column (50 × 2.1 mm, 2.7 µm) with a methanol–water gradient containing 0.05% formic acid. Calibration standards were prepared by spiking blank matrix (plasma or urine) and the calibration range was from 1 to 10,000 ng/mL for plasma or 2.5 to 5000 ng/mL for urine. Plasma and urine samples from the high dose rat PK studies were analyzed by SRI. In both matrices, the sample volume was 50 μL, and assay entailed the addition of 50 μL of internal standard solution to the standards and study samples. The compounds were used as reciprocal standards for one another (427 nM SJ733 in Milli-Q-Water for SJ571311 and 437 nM SJ311 in Milli-Q-Water for SJ733). These mixtures were then extracted with 1000 μL of ethyl acetate by vortexing for 10 min on a multi-tube vortex mixer at maximum speed followed by separation of the organic and aqueous phases by centrifugation (18,000×g, 5 min). […]

[4] = human microsomes, 20, 4, 0.8 µM

T1 sequence (P33261 whole entry): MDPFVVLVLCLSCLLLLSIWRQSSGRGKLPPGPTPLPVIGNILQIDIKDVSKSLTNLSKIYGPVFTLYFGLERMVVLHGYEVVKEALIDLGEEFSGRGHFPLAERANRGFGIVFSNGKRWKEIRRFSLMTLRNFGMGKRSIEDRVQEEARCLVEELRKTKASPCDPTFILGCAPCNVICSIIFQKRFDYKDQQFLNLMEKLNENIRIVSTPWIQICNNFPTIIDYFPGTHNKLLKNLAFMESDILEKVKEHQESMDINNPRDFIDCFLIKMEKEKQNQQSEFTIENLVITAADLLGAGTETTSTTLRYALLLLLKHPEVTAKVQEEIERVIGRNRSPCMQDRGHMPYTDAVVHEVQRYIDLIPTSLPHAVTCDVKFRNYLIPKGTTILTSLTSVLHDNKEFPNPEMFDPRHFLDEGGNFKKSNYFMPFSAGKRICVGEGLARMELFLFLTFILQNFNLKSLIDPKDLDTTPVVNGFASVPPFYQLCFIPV
T2 sequence (P10635 whole entry): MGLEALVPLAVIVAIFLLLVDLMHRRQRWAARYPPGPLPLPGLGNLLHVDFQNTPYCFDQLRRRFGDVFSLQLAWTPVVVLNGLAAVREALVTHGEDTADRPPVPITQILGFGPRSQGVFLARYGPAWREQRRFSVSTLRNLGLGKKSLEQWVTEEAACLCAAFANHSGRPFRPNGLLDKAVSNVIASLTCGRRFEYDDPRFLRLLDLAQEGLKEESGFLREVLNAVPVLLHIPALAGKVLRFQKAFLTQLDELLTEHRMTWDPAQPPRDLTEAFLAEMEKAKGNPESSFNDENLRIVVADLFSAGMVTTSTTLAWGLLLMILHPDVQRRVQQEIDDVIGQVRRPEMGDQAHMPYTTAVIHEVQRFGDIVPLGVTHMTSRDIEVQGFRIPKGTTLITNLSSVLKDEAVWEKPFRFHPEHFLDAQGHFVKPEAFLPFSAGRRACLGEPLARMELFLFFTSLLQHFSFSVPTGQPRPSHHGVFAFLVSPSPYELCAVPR

Compound: N#Cc1cc(NC(=O)C2c3ccccc3C(=O)N(CC(F)(F)F)C2c2cn[nH]c2)ccc1F (racemic) [(r)-SJ311]
- CLint in vitro ([1]; rat microsomes, 20, 4, 0.8 µM): <7 µl/min/mg protein
- CLint in vivo ([1]; rat microsomes, 20, 4, 0.8 µM): <11.7 mL/min/kg
- inhibition of CYP2C19 (CYP2C19): 12%
- CLint in vitro [2, 4]: <7 µl/min/mg protein
- CLint in vivo [2, 4]: <5.2 mL/min/kg
- inhibition of CYP2D6 (CYP2D6): 11%

Compound: N#Cc1cc(NC(=O)C2c3ccccc3C(=O)N(CC(F)(F)F)C2c2cccnc2)ccc1F (racemic) [(r)-SJ733]
- CLint in vitro ([1]; rat microsomes, 0.8 µM, independent replicate to Table 4): <7 µl/min/mg protein
- CLint in vivo ([1]; rat microsomes, 0.8 µM): <11.7 mL/min/kg
- CLint in vitro ([1]; rat microsomes, 4 µM, independent replicate to Table 4): <7 µl/min/mg protein
- CLint in vivo ([1]; rat microsomes, 4 µM): <11.7 mL/min/kg
- CLint in vitro ([1]; rat microsomes, 20 µM, independent replicate to Table 4): <7 µl/min/mg protein
- CLint in vivo ([1]; rat microsomes, 20 µM): <11.7 mL/min/kg
- Tmax ([3]; in vivo, po, 19.8 mg/kg): 1.0 h
- inhibition of CYP2C19 (CYP2C19): 5, 5%
- CLint in vitro ([2]; human microsomes, 0.8 µM, independent replicate to Table 4): 12.7 ± 0.3 µl/min/mg protein
- CLint in vivo ([2]; human microsomes, 0.8 µM): 11.5 ± 0.3 mL/min/kg
- CLint in vitro ([2]; human microsomes, 4 µM, independent replicate to Table 4): 11.5 ± 0.3 µl/min/mg protein
- CLint in vivo ([2]; human microsomes, 4 µM): 10.3 ± 1.2 mL/min/kg
- CLint in vitro ([2]; human microsomes, 20 µM, independent replicate to Table 4): <7 µl/min/mg protein
- CLint in vivo ([2]; human microsomes, 20 µM): <5.2 mL/min/kg
- inhibition of CYP2D6 (CYP2D6): 7% and 9%

- fraction of the IV dose recovered in urine ([3]; IV, 24-h sampling period): ~1.5%
- Half-life ([3]; male, Sprague Dawley, plasma, IV, isomers and racemate at similar doses, read-out: IV half-lives): 5 to 18 h
- AUC(0-inf) ([3]; male, Sprague Dawley, plasma, PO, all dose levels 50–200 mg/kg, read-out: mean AUCinf): 96.3 to 330 µM·h
- Half-life ([3]; male, Sprague Dawley, plasma, PO, read-out: terminal half-life, mean t1/2): 7.7 to 10.3 h
- bioavailability ([3]; male, Sprague Dawley, plasma, po, summary over the oral doses studied, read-out: Rat F (oral bioavailability)): 60 to 100%
- clearance ([3]; male, Sprague Dawley, plasma, read-out: measured in vivo clearance (converted)): ~11.7 mL/min/kg
- Rat F (oral bioavailability) ([3]; summary over the oral doses studied): 63-122%
- CYP2C19 inhibition, in words (CYP2C19): weakly inhibited
- CYP2D6 inhibition, in words (CYP2D6): weak inhibitors
Compound: N#Cc1cc(NC(=O)[C@H]2c3ccccc3C(=O)N(CC(F)(F)F)[C@@H]2c2cccnc2)ccc1F (racemic) [SJ733]
